These antisense oligonucleotides have a phosphorothioate backbone; sugars and methylation of C are not fully specified.
Each sequence was assayed against RIPK1. Details: ASO.
In the case of TTGTGTATCACGCCTTTT, the remaining target (mRNA or protein) (fraction of control) is reported as ≥ 1.
In the case of CCCTGGGTTCTGTGGAAA, the remaining target (mRNA or protein) (fraction of control) is reported as 0.7.
CCATGTAGTAGAGGGTGC was tested, and the remaining target (mRNA or protein) (fraction of control) was ≥ 1.
With AAAAGGGTCATGGGAGAC the remaining target (mRNA or protein) (fraction of control) was ≥ 1.
ATCTGGTAAACCTTTTCT gave a remaining target (mRNA or protein) (fraction of control) of 0.99.
With ATCTTAATGACATTCAAG the remaining target (mRNA or protein) (fraction of control) was ≥ 1.
For TGTCCAGTTCTGCACTCT, the remaining target (mRNA or protein) (fraction of control) was 0.81.
With TGCTCCACATCTTAAAGG the remaining target (mRNA or protein) (fraction of control) was 0.75.
In the case of ATTCTCTTCTTGTGGGTG, the remaining target (mRNA or protein) (fraction of control) is reported as ≥ 1.
GGCATGGTGGGTGTATTT was tested, and the remaining target (mRNA or protein) (fraction of control) was ≥ 1.
TGAGGTTGGCTGGTGAGC gave a remaining target (mRNA or protein) (fraction of control) of 0.83.
Work on ACATCTGGCCTGTTCCCA yielded a remaining target (mRNA or protein) (fraction of control) of 0.56.
For GTGCATCAGGTTGCCCTT, the remaining target (mRNA or protein) (fraction of control) was ≥ 1.
With ATAAAGATGGTAGTTGGC the remaining target (mRNA or protein) (fraction of control) was ≥ 1.
GACCCATCCCAAGTCCCT was tested, and the remaining target (mRNA or protein) (fraction of control) was ≥ 1.
For GGTTAGTTCTGGCTGACG, the remaining target (mRNA or protein) (fraction of control) was ≥ 1.
With TATCAAAGATAGCTTGGT the remaining target (mRNA or protein) (fraction of control) was ≥ 1.
TTAAACTCTTCACGTCCT was tested, and the remaining target (mRNA or protein) (fraction of control) was 0.85.
For CAAGTTGAAGAGACTGCA, the remaining target (mRNA or protein) (fraction of control) was ≥ 1.
ATTTTATAGATTCATCTG was tested, and the remaining target (mRNA or protein) (fraction of control) was ≥ 1.
TCCCAGCACTTTGGAAGG was tested, and the remaining target (mRNA or protein) (fraction of control) was ≥ 1.
With CAGTGCTTTCCCAGATTT the remaining target (mRNA or protein) (fraction of control) was 0.94.
GGATCCAGTGGTCTTGTT gave a remaining target (mRNA or protein) (fraction of control) of 0.84.
Sequence CTCTATGATGACGCCCAG has a remaining target (mRNA or protein) (fraction of control) of 0.69.
Sequence TTTCCCCATTCTCCAGCT has a remaining target (mRNA or protein) (fraction of control) of 0.85.
In the case of GAAGTTTGAGACCAGCCT, the remaining target (mRNA or protein) (fraction of control) is reported as ≥ 1.
ATTCGCTTCCCAGCAGAG gave a remaining target (mRNA or protein) (fraction of control) of 0.7.
CAATGATTTCCCAAATTA was tested, and the remaining target (mRNA or protein) (fraction of control) was ≥ 1.
For TTGTGCTGTCTAGTAGTG, the remaining target (mRNA or protein) (fraction of control) was ≥ 1.
CCACTTCCCTCAGCTCAT was tested, and the remaining target (mRNA or protein) (fraction of control) was ≥ 1.
TATGGCTCCTTATTTGCA showed a remaining target (mRNA or protein) (fraction of control) of 0.78.
With GTGCCTTTTCCCTCTGTA the remaining target (mRNA or protein) (fraction of control) was 0.84.
CCCTATCAGTGAGGACAG was tested, and the remaining target (mRNA or protein) (fraction of control) was ≥ 1.
GCCACATTCTGTCTGGGC gave a remaining target (mRNA or protein) (fraction of control) of 0.72.
In the case of ACTGGGATATTATGCAGA, the remaining target (mRNA or protein) (fraction of control) is reported as 0.98.
With CCATATAATTGTAGGCTC the remaining target (mRNA or protein) (fraction of control) was ≥ 1.
For AGTCTGTTCATCATCTTC, the remaining target (mRNA or protein) (fraction of control) was 0.96.

These sequences were tested against PTEN. Details: ASO.
TGTGAAACAACAGTGCCA gave a remaining target (mRNA or protein) (fraction of control) of 0.25.
GGAAGAACTCTACTTTGA showed a remaining target (mRNA or protein) (fraction of control) of 0.62.
TGTCTCTGGTCCTTACTT was tested, and the remaining target (mRNA or protein) (fraction of control) was 0.66.
With CCCCAATACAGATTCACT the remaining target (mRNA or protein) (fraction of control) was 0.48.
For TCTTCTGCAGGATGGAAA, the remaining target (mRNA or protein) (fraction of control) was ≥ 1.
ACTTCAGTTGGTGACAGA was tested, and the remaining target (mRNA or protein) (fraction of control) was 0.31.
Work on GGGAGGTGCCGCCGCCGC yielded a remaining target (mRNA or protein) (fraction of control) of 0.58.
With CGCTTGGCTCTGGACCGC the remaining target (mRNA or protein) (fraction of control) was 0.16.
With TAAATAGCTGGAGATGGT the remaining target (mRNA or protein) (fraction of control) was 0.45.
In the case of AATTATTTCCTTTCTGAG, the remaining target (mRNA or protein) (fraction of control) is reported as 0.86.
With TATTTTCATGGTGTTTTA the remaining target (mRNA or protein) (fraction of control) was 0.24.
For TCAATATTGTTCCTGTAT, the remaining target (mRNA or protein) (fraction of control) was ≥ 1.
Sequence TCTCCTCAGCAGCCAGAG has a remaining target (mRNA or protein) (fraction of control) of 0.66.
Sequence CCGGGTCCCTGGATGTGC has a remaining target (mRNA or protein) (fraction of control) of 0.24.
TGGCTGCAGCTTCCGAGA gave a remaining target (mRNA or protein) (fraction of control) of 0.27.
CGAGAGGCGGACGGGACC was tested, and the remaining target (mRNA or protein) (fraction of control) was ≥ 1.
Sequence ACTGGAATAAAACGGGAA has a remaining target (mRNA or protein) (fraction of control) of 0.85.
TTAAATTTGGCGGTGTCA was tested, and the remaining target (mRNA or protein) (fraction of control) was ≥ 1.
ATTACACCAGTTCGTCCC gave a remaining target (mRNA or protein) (fraction of control) of 0.41.

From the OligoGym collection
Also: test concentration or dose not given here.
